# Test results reported in patent US20110124888A1, “STYRYLBENZOFURAN DERIVATIVES AS INHIBITORS FOR BETA-AMYLOID FIBRIL FORMATION AND PREPARATION METHOD THEREOF” (Korea Institute of Science and Technology, priority 2008, published 2011).
# Columns and labels:
# [1] = Pharmacokinetics test in rats (plasma); format: in vivo, SD rats; conditions: for BA: 2.5 mg/kg po vs 1.25 mg/kg iv; for AUC / Cmax / Tmax: SD, rat, plasma; for AUC: n = 3
# Protocol: 1) Test Animal and Administration of Test Compound
# Three 7 week-old ICR mice (weight: about 30 g) and three 8 week-old SD rats (weight: about 250 g) were used per test group. A solution prepared by dissolving the compounds of Examples 9 and 17 in excipient (DMSO/Tween 20/saline: 0.1/0.6/2.3, v/v/v) were administered to each experimental animal. The test compound was orally administered in an amount of 10 mL per kg of body weight or intravenously administered in an amount of 5 mL per kg of body weight through the fine vein.
# 2) Blood Concentration Test
# At 30 min, 1 hr, 2 hr, 4 hr, 10 hr and 24 hr after oral administration of the test compounds, the blood was collected from periorbital veins into the tube containing heparin (1000 IU/mL, 3 μl) for the mice, and from jugular vein for rats. The blood sample was centrifuged at 12,000 rpm for 2 min to obtain plasma. The obtained plasma was kept in freezer at −80° C. until the analysis.
# The sample was analyzed using LC/MSMS system under the following condition:
# The sample was pretreated as follows:
# 50 μL of plasma was placed in 2.0 mL of tube having a cap (Eppendorf Co.) and acidified by adding 20 μL of 0.1% formic acid thereto. An internal standard solution and 1 mL of ethyl acetate as an extract solvent were added to the resultant solution. The resultant solution was mixed using thermomixer (Eppendorf Co.) at 1400 rpm for 5 min, and then subjected to centrifuge (Eppendorf Co.). The supernatant was collected and concentrated at 35° C. using cyclone. The residue was re-dissolved in 50 μL of moblie phase and 5 μL of the resulting solution was injected into LC/MS and analyzed.
# In Tables 8 and 9, “iv” refers to a intravenous injection; “po” refers to a per oral; “AUC plasma” refers to an area under the plasma level-time curve; “Cmax” refers to a maximum plasma concentration; “Tmax” refers to a time to reach Cmax, “BA” refers to a bioavailability (%) according to Equation 2 below; “AUC Brain” refers to a area under the brain tissue level-time curve; and “AUCBrain/AUCPlasma” refers to a passage rate of the test compound to the brain.
# Bioavailability (%)=[(AUCpo/AUCiv)×(Doseiv/Dosepo)×100] Equation 2
# wherein, AUCpo means an area under the blood concentration time curve (AUC) after the per oral administration, AUCiv means an AUC after the intravenous injection, Doseiv means an amount of the intravenous injection, and Dosepo means an amount of the per oral administration.
# [2] = molecular target: hERG potassium ion channel (Homo sapiens, UniProt Q12809); assay: Inhibitory effect on hERG potassium ion channel (whole-cell patch clamp, HEK-hERG cells); format: cell-based; conditions: for IC50: whole-cell patch clamp, room temperature, mean ± standard error, read-out: Inhibitory efficacy (IC50)
# hERG potassium ion channel, sequence (Q12809 whole entry): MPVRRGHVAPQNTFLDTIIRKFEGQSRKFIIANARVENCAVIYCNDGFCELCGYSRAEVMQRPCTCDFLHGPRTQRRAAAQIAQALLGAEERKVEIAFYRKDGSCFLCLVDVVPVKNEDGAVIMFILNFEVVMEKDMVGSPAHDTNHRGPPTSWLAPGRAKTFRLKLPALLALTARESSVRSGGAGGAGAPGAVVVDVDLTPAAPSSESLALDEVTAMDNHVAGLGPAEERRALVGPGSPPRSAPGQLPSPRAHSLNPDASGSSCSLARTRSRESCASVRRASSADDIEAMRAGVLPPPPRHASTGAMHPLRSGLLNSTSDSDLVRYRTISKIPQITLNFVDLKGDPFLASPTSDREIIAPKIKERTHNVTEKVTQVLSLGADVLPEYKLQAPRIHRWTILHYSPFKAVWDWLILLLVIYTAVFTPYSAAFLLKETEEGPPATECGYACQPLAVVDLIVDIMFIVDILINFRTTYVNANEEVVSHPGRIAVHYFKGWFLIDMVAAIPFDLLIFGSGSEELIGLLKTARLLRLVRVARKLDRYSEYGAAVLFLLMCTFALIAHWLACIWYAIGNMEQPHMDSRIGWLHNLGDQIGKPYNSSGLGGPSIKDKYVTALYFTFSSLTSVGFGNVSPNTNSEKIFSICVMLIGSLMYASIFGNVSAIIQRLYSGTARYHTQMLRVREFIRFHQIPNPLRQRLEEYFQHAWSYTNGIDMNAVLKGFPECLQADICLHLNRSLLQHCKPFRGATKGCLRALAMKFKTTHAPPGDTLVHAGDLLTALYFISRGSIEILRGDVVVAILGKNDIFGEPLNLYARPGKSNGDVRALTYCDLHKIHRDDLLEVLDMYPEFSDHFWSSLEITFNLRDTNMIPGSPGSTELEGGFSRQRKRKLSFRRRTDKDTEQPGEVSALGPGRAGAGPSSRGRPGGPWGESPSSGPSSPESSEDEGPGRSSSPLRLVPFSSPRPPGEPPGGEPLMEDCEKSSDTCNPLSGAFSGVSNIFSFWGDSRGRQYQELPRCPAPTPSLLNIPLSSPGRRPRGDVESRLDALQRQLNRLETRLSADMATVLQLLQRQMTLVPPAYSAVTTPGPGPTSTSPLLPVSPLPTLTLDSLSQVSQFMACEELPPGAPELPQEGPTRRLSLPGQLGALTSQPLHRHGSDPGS
# Protocol: 1) Model Cell Line and Culture
# A HEK-hERG cell line (lonGate Biosciences, Frankfurt, Germany Co.), which expresses hERG stably, was cultured in a DMEM (Dulbecco's Modified Eagle's Medium, Sigma Co., St. Louis, Mo., USA) supplemented with 10% fetal bovine serum (FBS, Cambrex, Walkersville, Md., USA) and 0.5 mg/mL zeocin (Invitrogen, Carlsbad, Calif., USA). The cell line was subcultured 5 days after culture when 80% confluency was reached.
# 2) Preparation of Test Solution and Test Drug
# A solution within an electrode used to measure the potassium ion current is composed of 115 mM K-aspartate, 20 mM KCl, 10 mM EGTA, 10 mM HEPES, 2.5 mM tris-phosphocreatine, 0.1 mM Na2GTP and 5 mM MgCl2 (pH 7.2, 290 mOsm/Kg H2O). A solution for an extracellular perfusate is composed of 135 mM NaCl, 5 mM KCl, 1 mM MgCl2, 2 mM CaCl2, 10 mM glucose, and 10 mM HEPES (pH 7.2, 300 mOsm/Kg H2O).
# Test drug solutions were prepared by respectively diluting the inventive compounds with extracellular perfusate to a desired concentration. The prepared test drug solution was placed in a 7-array polyethylene tube connected into a capillary column for gas chromatography and was dropped from the tip of the column at a height of 100 μm or less to the HEK-hERG cell line.
# 3) Measurement of Ion Current
# Potassium ion current was measured using EPC10 (Instrutech Co., NY, USA) patch clamp amplifier in accordance with the conventional whole-cell patch clamp method. Electrode used in the measurement was a borosilicate glass capillary (external diameter: 1.65 mm, inside diameter: 1.2 mm, Corning 7052, Gamer Glass Co., Claremont, Calif., USA) prepared by using P-97 Flaming-Brown micropipette puller (Sutter Instrument Co.). The electrode was coated with Sylgard 184 (Dow Corning Co., Midland, Mich., USA) and trimmed with microforge (Narishige Co., Tokyo, Japan). […] A culture dish containing HEK-hERG cells was placed in an inverted microscope (Nikon Co.) and extracellular perfusate containing the inventive compound was perfused at a rate of 1-2 mL/min. The membrane capacitance and series resistance of cell membrane were calibrated by 80% or more and potassium ion current was measured at a sampling rate of 2 kHz and a low-pass filter of 2 kHz (−3 dB; 8-pole Bassel filter). The test is conducted at room temperature (21-24° C.).
# 4) Data analysis and Statistics
# The results were analyzed using Pulse/Pulsefit (v9.0, HEKA Elcktronik, Lambrecht, Germany) and Igor macro. The results were given as meant standard error.
Compound,BA [1] [%],"AUC ([1]; 1.25 mg/kg, iv) [ng·h/mL]","Cmax ([1]; 2.5 mg/kg, po) [ng/mL]","Tmax ([1]; 2.5 mg/kg, po) [h]","AUC ([1]; 2.5 mg/kg, po) [ng·h/mL]",inhibitory efficacy on hERG potassium ion channel (in words) [2],IC50 [2] [µM]
"CNc1ccc(C=Cc2cc3cc(OC)ccc3o2)cc1 [Compound 17, 5-methoxy-2-(4-methylaminostyryl)benzofuran]",22.4,1140,122,1.33,516,insignificant inhibitory efficacy,47.9 ± 5.26
"COc1ccc2cc(C=Cc3ccc(N(C)C)cc3)oc2c1 [Compound 9, 6-methoxy-2-(4-dimethylaminostyryl)benzofuran]",27.8,1640,215,1.67,908,insignificant inhibitory efficacy,52.1 ± 3.68
